Experimental findings from patent publication US7816353B2 (Exelixis, Inc., priority 2003, dated 2010) are described below.

Where two headings read alike, the source gives them in different places.

This test concerns the target T1, p70S6K (Homo sapiens, UniProt P23443, T412E).
T1 construct: human p70S6 kinase domain residues 1-421, containing a T412E mutation; made in house
The test can be described thus: p70S6 Kinase Assay (Luciferase-Coupled Chemiluminescent Kinase assay, LCCA). It counts as biochemical. Conditions: 5 μM ATP. Summed up:
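Luciferase-coupled chemiluminescence measured percent ATP remaining after the 2 h kinase reaction at ambient temperature, with ATP near the kinase's KM. Ten inhibitor concentrations were tested. IC50 was obtained from a Hill-equation fit.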

[1] abbreviates: human p70S6 kinase domain residues 1-421, T412E, read-out: p70S6K IC50.
The mark [2] stands for this setting: p70S6K IC50, human p70S6 kinase domain residues 1-421, T412E.

T1 sequence (P23443 1-421 T412E): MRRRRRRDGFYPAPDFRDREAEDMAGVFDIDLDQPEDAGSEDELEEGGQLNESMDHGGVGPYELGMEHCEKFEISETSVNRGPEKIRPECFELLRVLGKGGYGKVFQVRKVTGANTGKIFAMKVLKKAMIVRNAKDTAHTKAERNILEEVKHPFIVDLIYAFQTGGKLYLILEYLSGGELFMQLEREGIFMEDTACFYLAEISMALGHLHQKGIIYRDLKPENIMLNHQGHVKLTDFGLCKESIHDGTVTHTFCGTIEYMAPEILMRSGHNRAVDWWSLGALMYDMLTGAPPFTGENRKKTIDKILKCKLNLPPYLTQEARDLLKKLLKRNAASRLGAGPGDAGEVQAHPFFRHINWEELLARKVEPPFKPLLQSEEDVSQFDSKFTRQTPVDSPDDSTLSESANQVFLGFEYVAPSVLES

For orientation: IC50 means the concentration at which inhibition is half-maximal. Regarding `CCOc1nc(N)nc(N[C@@H](C)C(=O)Nc2cc(OCCN(C)C)cc(C(F)(F)F)c2)c1C#N` [Example 180, N~2~-[2-amino-5-cyano-6-(ethyloxy)pyrimidin-4-yl]-N-[3-{[2-(dimethylamino)ethyl]oxy}-5-(trifluoromethyl)phenyl]-L-alaninamide], the IC50 under setting [1] is over 2 µM. `CSc1nc(N)nc(O[C@H](C)C(=O)Nc2cccc(C(F)(F)F)c2)c1C#N` [Example 68, (2R)-2-{[2-amino-5-cyano-6-(methylthio)pyrimidin-4-yl]oxy}-N-[3-(trifluoromethyl)phenyl]propanamide] displayed an IC50 under setting [2] of 0.5 to 2 µM.

On to `CSc1nc(N)nc(N[C@@H](C)C(=O)Nc2cc(C(=O)NCCN(C)C)cc(C(F)(F)F)c2)c1C#N` [Example 125, 3-({N-[2-amino-5-cyano-6-(methylthio)pyrimidin-4-yl]-L-alanyl}amino)-N-[2-(dimethylamino)ethyl]-5-(trifluoromethyl)benzamide], for which, under setting [1], the IC50 was over 2 µM. Still for that read-out and setting: as for `COC(=O)CC[C@H](Nc1nc(N)nc(SC)c1C#N)C(=O)Nc1cccc(C(F)(F)F)c1` [Example 146, methyl N~2~-[2-amino-5-cyano-6-(methylthio0pyrimidin-4-yl]-N-'-(trifluoromethyl)phenyl]-L-alpha-glutaminate], the figure is 0.5 to 2 µM. In the case of `COc1nc(N)nc(N(C)[C@@H](C)C(=O)Nc2cccc(C(F)(F)F)c2)c1C#N` [Example 119, N^2-[2-amino-5-cyano-6-(methyloxy)pyrimidin-4-yl]-N^2-methyl-N-[3-(trifluoromethyl)phenyl]-L-alaninamide], the IC50 under setting [1] is over 2 µM. Same read-out and setting: with `Cc1nc2oc(C(=O)Nc3cccc(C(F)(F)F)c3)c(N)c2c(C)c1N` [Example 97, 3,5-diamino-4,6-dimethyl-N-[3-(trifluoromethyl)phenyl]furo[2,3-b]pyridine-2-carboxamide] the figure was over 2 µM. The same measure, in the same setting: with `CSc1nc(N)nc(N[C@@H](CCCN2CCOCC2)C(=O)Nc2cccc(C(F)(F)F)c2)c1C#N` [Example 143, N~2~-[2-amino-5-cyano-6-(methylthio)pyrimidin-4-yl]-5-morpholin-4-yl-N-[3-(trifluoromethyl)phenyl]-L-norvalinamide] the figure was 0.05 to 0.5 µM. The same measure, in the same setting: as for `CCOc1nc(N)nc(N[C@@H](CN2CCOCC2)C(=O)Nc2cccc(C(F)(F)F)c2)c1C#N` [Example 193, N~2~-[2-amino-5-cyano-6-(ethyloxy)pyrimidin-4-yl]-3-morpholin-4-yl-N-[3-(trifluoromethyl)phenyl]-L-alaninamide], the figure is over 2 µM; as for `CSc1nc(N)nc(N[C@@H](CCCN)C(=O)Nc2cccc(C(F)(F)F)c2)c1C#N` [Example 86, N^2-[2-amino-5-cyano-6-(methylthio)pyrimidin-4-yl]-N-[3-(trifluoromethyl)phenyl]-L-ornithinamide], over 2 µM; as for `CCOc1nc(N)nc(N[C@@H](Cc2ccc(O)cc2)C(=O)Nc2cccc(C(F)(F)F)c2)c1C#N` [Example 154, Nalpha-[2-amino-5-cyano-6-(ethyloxy)pyrimidin-4-yl]-N-[3-(trifluoromethyl)phenyl]-L-tyrosinamide], over 2 µM. As to `CSc1nc(N)nc(N[C@@H](CCCNC(C)=O)C(=O)Nc2cccc(C(F)(F)F)c2)c1C#N` [Example 123, N^5-acetyl-N^2-[2-amino-5-cyano-6-(methylthio)pyrimidin-4-yl]-N-[3-(trifluoromethyl)phenyl]-L-ornithinamide], under setting [1], the IC50 was over 2 µM. In the case of `CCOC(=O)CN(NC(=O)Nc1cccc(C(F)(F)F)c1)c1nc(N)nc(SC)c1C#N` [Example 95, ethyl[1-[2-amino-5-cyano-6-(methylthio)pyrimidin-4-yl]-2-({[3-(trifluoromethyl)phenyl]amino}carbonyl)hydrazino]acetate], the IC50 under setting [1] is over 2 µM. `COc1nc(N)nc(N[C@@H](CN(C)C)C(=O)Nc2cccc(C(F)(F)F)c2)c1C#N` [Example 178, N~2~-[2-amino-5-cyano-6-(methyloxy)pyrimidin-4-yl]-3-(dimethylamino)-N-[3-(trifluoromethyl)phenyl]-L-alaninamide]: the IC50 under setting [1] was over 2 µM. On to `CSc1nc(N)nc(N[C@@H](CCC(=O)OCc2ccccc2)C(=O)Nc2cccc(C(F)(F)F)c2)c1C#N` [Example 182, phenylmethyl N~2~-[2-amino-5-cyano-6-(methylthio)pyrimidin-4-yl]-N-[3-(trifluoromethyl)phenyl]-L-alpha-glutaminate], for which the IC50 under setting [1] was over 2 µM.

On to `CSc1nc(N)nc(OCC(=O)Nc2cccc(C(F)(F)F)c2)c1CO` [Example 56, 2-{[2-amino-5-(hydroxymethyl)-6-(methylthio)pyrimidin-4-yl]oxy}-N-[3-(trifluoromethyl)phenyl]acetamide], for which, under setting [1], the IC50 lay in the range of 0.5 to 2 µM. On the same count and under the same terms, as for `CSc1nc(N)nc(N[C@@H](CCC(N)=O)C(=O)Nc2cccc(C(F)(F)F)c2)c1C#N` [Example 139], the figure is 0.05 to 0.5 µM; as for `N#Cc1cnc(N2CCOCC2)nc1NCC(=O)Nc1cccc(C(F)(F)F)c1` [Example 76], over 2 µM; as for `CSc1nc(N)nc(N[C@@H](C)C(=O)Nc2cc(N)cc(C(F)(F)F)c2)c1C#N` [Example 94, N^2-[2-amino-5-cyano-6-(methylthio)pyrimidin-4-yl]-N-[3-amino-5-(trifluoromethyl)phenyl]-L-alaninamide], over 2 µM. `COc1nc(N)nc(N(C)[C@@H](C)C(=O)Nc2cccc(Br)c2)c1C#N` [Example 181, N~2~-[2-amino-5-cyano-6-(methyloxy)pyrimidin-4-yl]-N-(3-bromophenyl)-N~2~-methyl-L-alaninamide]: the IC50 under setting [1] was over 2 µM.

For `CSc1cc(SCC(=O)Nc2cccc(C(F)(F)F)c2)nc(N)n1` [Example 48, 2-{[2-amino-6-(methylthio)pyrimidin-4-yl]thio}-N-[3-(trifluoromethyl)phenyl]acetamide], the IC50 under setting [1] is 0.05 to 0.5 µM.

On to `CCOc1nc(N)nc(NNC(=O)Nc2cccc(C(F)(F)F)c2)c1C#N` [Example 127, 2-[2-amino-5-cyano-6-(ethyloxy)pyrimidin-4-yl]-N-[3-(trifluoromethyl)phenyl]hydrazinecarboxamide], for which, under setting [1], the IC50 was over 2 µM. In the case of `CCOc1nc(N)nc(N[C@@H](C)C(=O)Nc2cc(C(=O)NCCCN3CCN(C)CC3)cc(C(F)(F)F)c2)c1C#N` [Example 161], the IC50 under setting [1] is over 2 µM. On the same count and under the same terms, with `C[C@@H](C(=O)Nc1cccc(C(F)(F)F)c1)N(C)c1nc(N)nc([S+](C)[O-])c1C#N` (stereo partly drawn) [Example 118, N^2-[2-amino-5-cyano-6(methylsulfinyl)pyrimidin-4-yl]-N^2-methyl-N-[3-(trifluoromethyl)phenyl]-L-alaninamide] the figure was over 2 µM. Still for that read-out and setting: with `CCOc1nc(N)nc(N[C@@H](CCC(=O)O)C(=O)Nc2cccc(C(F)(F)F)c2)c1C#N` [Example 173, N~2~-[2-amino-5-cyano-6-(ethyloxy)pyrimidin-4-yl]-N-[3-(trifluoromethyl)phenyl]-L-alpha-glutamine] the figure was over 2 µM.

As to `CSc1nc(N)nc(O[C@@H](C)C(=O)Nc2cccc(C(F)(F)F)c2)c1C#N` [Example 42, (2S)-2-{[2-amino-5-cyano-6-(methylthio)pyrimidin-4-yl]oxy}-N-[3-(trifluoromethyl)phenyl]propanamide], the IC50 under setting [2] lay within 0.05 to 0.5 µM.

As for `CSc1nc(N)nc(N(CCC2CCOCC2)CC(=O)Nc2cccc(C(F)(F)F)c2)c1C#N` [Example 105, N^2-[2-amino-5-cyano-6-(methylthio)pyrimidin-4-yl]-N^2-[2-(tetrahydro-2H-pyran-4-4yl)ethyl]-N-[3-(trifluoromethyl)phenyl]glycinamide], the IC50 under setting [1] is over 2 µM. On the same count and under the same terms, with `C[C@H](Nc1nc(N)nc(N)c1C#N)C(=O)Nc1cccc(C(F)(F)F)c1` [Example 89, N^2-(2,6-diamino-5-cyanopyrimidin-4-yl)-N-[3-(trifluoromethyl)phenyl]-L-alaninamide] the figure was over 2 µM; with `CC(C)Oc1nc(N)nc(N[C@@H](C)C(=O)Nc2cccc(C(F)(F)F)c2)c1C#N` [Example 122, N^2-{2-amino-5-cyano-6-[(1-methylethyl)oxy]pyrimidin-4-yl}-N-[3-(trifluoromethyl)phenyl]-L-alaninamide], over 2 µM; with `COc1nc(N)nc(N[C@@H](CCCNC(=O)OC(C)(C)C)C(=O)Nc2cccc(C(F)(F)F)c2)c1C#N` [Example 185, 1,1-dimethylethyl ((4S)-4-{[2-amino-5-cyano-6-(methyloxy)pyrimidin-4-yl]amino}-5-oxo-5-{[3-(trifluoromethyl)phenyl]amino}pentyl)carbamate], over 2 µM. Still for that read-out and setting: as for `CSc1nc(N)nc(N(C)[C@@H](C)c2nc3ccc(C(F)(F)F)cc3[nH]2)c1C#N` [Example 104, 2-amino-4-(methylthio)-6-(methyl{(1S)-1-[6-(trifluoromethyl)-1H-benzimidazol-2-yl]ethyl}amino)pyrimidine-5-carbonitrile], the figure is over 2 µM.

Take `CSc1nc(N)nc(NCCC[C@H](N)C(=O)Nc2cccc(C(F)(F)F)c2)c1C#N` [Example 155, N~5~-[2-amino-5-cyano-6-(methylthio)pyrimidin-4-yl]-N-[3-(trifluoromethyl)phenyl]-L-ornithinamide]: under setting [1], the IC50 is over 2 µM. The same measure, in the same setting: as for `CSc1nc(N)nc(N[C@@H](C)C(=O)Nc2cc(C(=O)O)cc(C(F)(F)F)c2)c1C#N` [Example 145], the figure is 0.5 to 2 µM; as for `COc1nc(N)nc(N(C)[C@@H](C)C(=O)Nc2cccc(OC(F)(F)F)c2)c1C#N` [Example 188, N~2~-[2-amino-5-cyano-6-(methyloxy)pyrimidin-4-yl]-N~2~-methyl-N-{3-[(trifluoromethyl)oxy]phenyl}-L-alaninamide], over 2 µM.

In the case of `CSc1nc(N)nc(SCC(=O)Nc2cc(C(F)(F)F)ccc2Cl)c1C#N` [Example 55, 2-{[2-amino-5-cyano-6-(methylthio)pyrimidin-4-yl]thio}-N-[2-chloro-5-(trifluoromethyl)phenyl]acetamide], the IC50 under setting [1] lay within 0.5 to 2 µM.
